Where two headings read alike, the source gives them in different places.
Columns and labels:
[1] = tested on: laser-induced choroidal neovascularization (CNV); assay: In vivo choroidal neovascularization (CNV) model; design: species or system rat; details: Brown-Norway rats, injection on Day 3, CNV area on Day 10
From the text: In Vivo Choroidal Neovascularization (CNV) Model This test measures the capacity of compounds to inhibit CNV progression. CNV is the main cause of severe vision loss in patients suffering from age-related macular degeneration (AMD). Male Brown-Norway rats (Charles River Japan Co., Ltd.) were used in these studies. Rats were anesthetized by intraperitoneal injection of pentobarbital, and the right pupil was dilated with 0.5% tropicamide and 0.5% phenylephrine hydrochloride. The right eye received 6 laser burns between retinal vessels using a slit lamp delivery system of Green laser Photocoagulator (Nidex Inc., Japan), and microscope slide glass with 10 mg/mL hyaluronic acid (SIGMA) used as a contact lens. The laser power was 200 mW for 0.1 second and spot diameter was 100 μm. At the time of laser burn, bubble production was observed; which is an indication of rupture of Bruch's membrane which is important for CNV generation. After animals were anesthetized, and the right pupil dilated (as mentioned above), the right eye of the animal received the compound or vehicle by an injection (3 μL/eye) at doses of 3 or 10 nmol/eye on Day 3. The compounds were dissolved or suspended in CBS, PBS, or other adequate vehicles before injection. On Day 10, the animals were anesthetized with ether, and high molecular weight fluorescein isothiocyanate (FITC)-dextran (SIGMA, 2×10^6 MW) was injected via a tail vein (20 mg/rat). About 30 min after FITC-dextran injection, animals were euthanized by ether or carbon dioxide, and the eyes were removed and fixed with 10% formaline neutral buffer solution. After over 1 hour of fixation, RPE-choroid-sclera flat mounts were obtained by removing cornea, lens and retina from the eyeballs. The flat mounts were mounted in 50% glycerol on a microscope slide, and the portion burned by laser was photographed using a fluorescence microscope (Nikon Corporation, excitation filter: 465-495 nm, absorption filter: 515-555 nm). The CNV area was obtained by measurement of hyper-fluorescence area observed on the photograph using Scion image. The average CNV area of 6 burns was used as an individual value of CNV area, and the average CNV area of compound treated group was compared with that of the vehicle-treated group.

VEGFR2 (KDR) = biological target: T1, VEGFR2 (KDR) (Homo sapiens, UniProt P35968); assay: In vitro receptor tyrosine kinase assay (VEGF receptor KDR), DELFIA; format: biochemical; details: recombinant GST-VEGFR2 806-1356, ATP 0.6 uM; read-out: VEGFR IC50UM
T1 construct: made in house; host or cells: Sf9 cells (Spodoptera frugiperda), baculovirus
T1 sequence (P35968 806-1356): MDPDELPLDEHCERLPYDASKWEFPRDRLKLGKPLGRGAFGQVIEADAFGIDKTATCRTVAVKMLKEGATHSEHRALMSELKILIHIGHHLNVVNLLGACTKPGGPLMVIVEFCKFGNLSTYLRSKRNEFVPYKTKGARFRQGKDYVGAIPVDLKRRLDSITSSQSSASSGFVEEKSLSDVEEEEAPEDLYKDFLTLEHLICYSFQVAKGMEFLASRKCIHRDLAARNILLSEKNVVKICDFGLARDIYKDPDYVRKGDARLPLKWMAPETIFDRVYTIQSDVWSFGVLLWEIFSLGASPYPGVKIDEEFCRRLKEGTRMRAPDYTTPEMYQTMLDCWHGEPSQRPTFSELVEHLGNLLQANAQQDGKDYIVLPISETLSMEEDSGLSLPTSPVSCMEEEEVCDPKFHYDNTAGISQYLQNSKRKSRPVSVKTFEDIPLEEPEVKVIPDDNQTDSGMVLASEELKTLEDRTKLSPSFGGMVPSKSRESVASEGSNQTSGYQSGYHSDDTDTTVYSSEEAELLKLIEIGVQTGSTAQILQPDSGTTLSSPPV
From the text: In Vitro Receptor Tyrosine Kinase Assay (VEGF Receptor KDR)
This test measures the ability of compounds to inhibit the enzymatic activity of recombinant human VEGF receptor enzymatic activity.
A 1.6-kb cDNA corresponding to the catalytic domain of VEGFR2 (KDR) (Genbank accession number AF035121 amino acid 806 to 1356) is cloned into the Pst I site of the pDEST20 Gateway vector (Invitrogen) for the production of a GST-tagged version of that enzyme. This construct is used to generate recombinant baculovirus using the Bac-to-Bac™ system according to the manufacturer's instructions (Invitrogen).
The GST-VEGFR2806-1356 protein is expressed in Sf9 cells (Spodoptera frugiperda) upon infection with recombinant baculovirus construct. Briefly, Sf9 cells grown in suspension and maintained in serum-free medium (Sf900 II supplemented with gentamycin) at a cell density of about 2×10^6 cells/ml are infected with the above-mentioned viruses at a multiplicity of infection (MOI) of 0.1 during 72 hours at 27° C. with agitation at 120 rpm on a rotary shaker. Infected cells are harvested by centrifugation at 398 g for 15 min. Cell pellets are frozen at −80° C. until purification is performed.
All steps described in cell extraction and purification are performed at 4° C. Frozen Sf9 cell pellets infected with the GST-VEGFR2806-1356 recombinant baculovirus are thawed and gently resuspended in Buffer A (PBS pH 7.3 supplemented with 1 μg/ml pepstatin, 2 μg/ml Aprotinin and leupeptin, 50 μg/ml PMSF, 50 μg/ml TLCK and 10 μM E64 and 0.5 mM DTT) using 3 ml of buffer per gram of cells. Suspension is Dounce homogenized and 1% Triton X-100 is added to the homogenate after which it is centrifuged at 22500 g, 30 min., 4° C. The supernatant (cell extract) is used as starting material for purification of GST-VEGFR2806-1356.
The supernatant is loaded onto a GST-agarose column (Sigma) equilibrated with PBS pH 7.3. Following a four column volume (CV) wash with PBS pH 7.3+1% Triton X-100 and 4 CV wash with buffer B (50 mM Tris pH 8.0, 20% glycerol and 100 mM NaCl), bound proteins are step eluted with 5 CV of buffer B supplemented with 5 mM DTT and 15 mM glutathion. GST-VEGFR2806-1356 enriched fractions from this chromatography step are pooled based on U.V. trace i.e. fractions with high O.D.280. Final GST-VEGFR2806-1356 protein preparations concentrations are about 0.7 mg/ml with purity approximating 70%. Purified GST-VEGFR2806-1356 protein stocks are aliquoted and frozen at −80° C. prior to use in enzymatic assay.
Inhibition of VEGFR/KDR is measured in a DELFIA™ assay (Perkin Elmer). The substrate poly(Glu4,Tyr) is immobilized onto black high-binding polystyrene 96-well plates. The coated plates are washed and stored at 4° C. During the assay, the enzyme is pre-incubated with inhibitor and Mg-ATP on ice in polypropylene 96-well plates for 4 minutes, and then transferred to the coated plates. The subsequent kinase reaction takes place at 30° C. for 10-30 minutes. ATP concentrations in the assay are 0.6 uM for VEGFR/KDR (2× the Km). Enzyme concentration is 5 nM. After incubation, the kinase reactions are quenched with EDTA and the plates are washed. Phosphorylated product is detected by incubation with Europium-labeled anti-phosphotyrosine MoAb. After washing the plates, bound MoAb is detected by time-resolved fluorescence in a Gemini SpectraMax reader (Molecular Devices). Compounds are evaluated over a range of concentrations, and IC50 values (concentration of compounds giving 50% inhibition of enzymatic activity) are determined.

[2] = tested on: phospho ERK1/2 (T202/Y204) in HUVEC cells; assay: VEGF-dependent Erk phosphorylation; format: cell-based; details: VEGF165 150 ng/ml, Western blot, read-out: P_ERK IC50UM
From the text: VEGF-Dependent Erk Phosphorylation
HUVEC cells are purchased from Cambrex Bio Science Walkersville, Inc and cultured according to the vendor's instructions. The full-length coding sequence of VEGF165 is cloned using the Gateway Cloning Technology (Invitrogen) for baculovirus expression Sf9 cells. VEGF165 is purified from conditioned media using a NaCl gradient elution from a HiTrap heparin column (GE Healthcare Life Sciences) followed by an imidazole gradient elution from a HiTrap chelating column (GE Healthcare Life Sciences), then buffer stored in PBS supplemented with 0.1% BSA and filter sterilized
Cells are seeded at 8000 cells/well of a 96 wells plate and grown for 48 hours. Cells are then grown overnight in serum and growth factor-free medium and exposed for 1.5 h to compounds dilutions. Following a 15 min incubation in medium, VEGF165 (150 ng/ml) cells are lysed in ice-cold lysis buffer (50 mM HEPES, pH 7.4, 150 mM NaCl, 1.5 mM MgCl2, 1% Triton X-100, 10% glycerol) containing 1 mM 4-(2 aminoethyl)benzenesulfonyl fluoride hydrochloride, 200 μM sodium orthovanadate, 1 mM sodium fluoride, 10 μg/mL leupeptin, 10 μg/mL aprotinin, 1 μg/mL pepstatin and 50 μg/mL Na-p-tosyl-L-lysine chloromethyl ketone hydrochloride and processed as Western blots to detect anti-phospho ERK1/2 (T202/Y204) (Cell Signaling Technologies).
lysates samples from single treatment wells are separated on 5-20% SDS-PAGE gels and immunobloting is performed using Immobilon polyvinylidene difluoride membranes (Amersham) according to the manufacturer's instructions. The blots are washed in Tris-buffered saline with 0.1% Tween 20 detergent (TBST) and probed for antibodies against phospho-Thr202/Tyr204-ERK (Cell signaling technologies. Chemiluminescence detection (Amersham, ECL plus) is performed according to the manufacturer's instructions using a Storm densitometer (GE Healthcare; 800 PMT, […]) for imaging and densitometry analysis. Values of over the range of dilution are used to prepare IC50 curves using a 4-parameter fit model. These curves are calculated using GraFit

[3] = Rattus norvegicus, 240 h, dose 3 nmol/eye, read-out: Inhibition of CNV Progression (%)

| IC50 (VEGFR2 (KDR)) | Compound | inhibition in vivo at 3 nmol/eye [1, 3] | IC50 ([2]; Homo sapiens) | inhibition in vivo at 10 nmol/eye ([1]; Rattus norvegicus, 240 h, dose 10 nmol/eye, read-out: Inhibition of CNV Progression (%)) | IC50 [2] | Inhibition of CNV Progression (%) ([1]; dose 3 nmol/eye) |
| --- | --- | --- | --- | --- | --- | --- |
| 9 nM | O=C(Nc1ccc(Oc2ccnc3cc(-c4ccc(CN5CCN(C(=O)COP(=O)(O)O)CC5)cn4)sc23)c(F)c1)NC1CC1 [Compound 6, 2-(4-((6-(7-(4-(3-Cyclopropylureido)-2-fluorophenoxy)thieno[3,2-b]pyridin-2-yl)pyridin-3-yl)methyl)piperazin-1-yl)-2-oxoethyl dihydrogen phosphate] | 20.9% | 0.4 nM | – | – | – |
| 6 nM | COCCOCCOCCOCCN1CCN(Cc2ccc(-c3cc4nccc(Oc5ccc(NC(=O)NC6CC6)cc5F)c4s3)nc2)CC1 [Compound 7, 1-(4-(2-(5-((4-(2,5,8,11-Tetraoxamidecan-13-yl)piperazin-1-yl)methyl)pyridin-2-yl)thieno[3,2-b]pyridin-7-yloxy)-3-fluorophenyl)-3-cyclopropylurea] | 18.1% | 0.2 nM | – | – | – |
| 18 nM | COCCOCCOCCOCCn1cc(-c2cc3nccc(Oc4ccc(NC(=O)NC5CC5)cc4F)c3s2)nn1 [Compound 30, 1-(4-(2-(1-(2,5,8,11-Tetraoxamidecan-13-yl)-1H-1,2,3-triazol-4-yl)thieno[3,2-b]pyridin-7-yloxy)-3-fluorophenyl)-3-cyclopropylurea] | 26.4% | 70 nM | – | – | – |
| 33 nM | COCCOCCOCCOCCOc1ccc(NCc2ccc(-c3cc4nccc(Oc5ccc(NC(=O)NC6CC6)cc5F)c4s3)nc2)cc1 [Compound 39] | 24.7% | 6 nM | – | – | – |
| 8 nM | COCCOCCOCCOCCOCCC(=O)N1CCN(Cc2ccc(-c3cc4nccc(Oc5ccc(NC(=O)NC6CC6)cc5F)c4s3)nc2)CC1 [Compound 49] | 20.9% | – | – | – | – |
| 8 nM | COCCOCCOCCOC(=O)N1CCN(Cc2ccc(-c3cc4nccc(Oc5ccc(NC(=O)NC6CC6)cc5F)c4s3)nc2)CC1 [Compound 50, 2-(2-(2-Methoxyethoxy)ethoxy)ethyl 4-((6-(7-(4-(3-cyclopropylureido)-2-fluorophenoxy)thieno[3,2-b]pyridin-2-yl)pyridin-3-yl)methyl)piperazine-1-carboxylate] | – | 0.8 nM | 80.6% | – | – |
| 10 nM | COCCOCCOCCOCCOC1CN(Cc2ccc(-c3cc4nccc(Oc5ccc(NC(=O)NC6CC6)cc5F)c4s3)nc2)C1 [Compound 60, 1-(4-(2-(5-((3-(2,5,8,11-tetraoxamidecan-13-yloxy)azetidin-1-yl)methyl)pyridin-2-yl)thieno[3,2-b]pyridin-7-yloxy)-3-fluorophenyl)-3-cyclopropylurea] | – | – | – | 1.5 nM | – |
| 7 nM | COCCOCCOCCOCCN(C(C)=O)C1CCN(Cc2ccc(-c3cc4nccc(Oc5ccc(NC(=O)NC6CC6)cc5F)c4s3)nc2)CC1 [Compound 65, N-(1-((6-(7-(4-(3-Cyclopropylureido)-2-fluorophenoxy)thieno[3,2-b]pyridin-2-yl)pyridin-3-yl)methyl)piperidin-4-yl)-N-(2,5,8,11-tetraoxamidecan-13-yl)acetamide] | – | – | – | 2 nM | 32.1% |
| 12 nM | COCCOCCOCCOCCN1CCC(N(Cc2ccc(-c3cc4nccc(Oc5ccc(NC(=O)NC6CC6)cc5F)c4s3)nc2)C(C)=O)CC1 [Compound 69, N-(1-(2,5,8,11-Tetraoxamidecan-13-yl)piperidin-4-yl)-N-((6-(7-(4-(3-cyclopropylureido)-2-fluorophenoxy)thieno[3,2-b]pyridin-2-yl)pyridin-3-yl)methyl)acetamide] | – | – | – | 25 nM | – |

Reference: patent publication US20130096088A1, “Inhibitors of Protein Tyrosine Kinase Activity” (METHYLGENE INC., priority 2011, published 2013)
